Experiments:
C. formosanus = conditions: baits containing the termiticide; cited from earlier work
Formosan termite = experiment: choice test of the colorant (feeding deterrence); type: in vivo, Coptotermes formosanus; conditions: neutral red at 1000 ppm in bait matrix
Experimental: (§1) The basic formulation of the matrix was prepared the same day that the experiment was set up, as reported by Rojas et al. (U.S. patent application Ser. Nos. 09/294,499 and 09/625,940, ibid). The colorant used was neutral red (Product number 72210, Fluka Chemical Corp., Milwaukee, Wis.) at 1000 ppm.

[1] = test system: Formosan subterranean termites; experiment: two choice feeding experiment: blank bait matrix vs. matrix with neutral red and urea; type: in vivo, Coptotermes formosanus; conditions: urea 0-1280 ppm added to matrix with 1,000 ppm neutral red; groups of 300 termites; 30 d; FIG. 1
Experimental: as §1
Under a laminar flow hood, the sterile cellulose was weighed using a Oahus portable plus scale (Fisher Scientific, Pittsburgh, Pa.) into a sterile 600 ml glass beaker. The colorant was weighed using a Mettler Toledo balance (PB303, Fisher Scientific, Pittsburgh, Pa.) and added to the pre-weighed cellulose. The cellulose with the colorant were homogenized using a sterile stainless steel spatula.
The sterile liquid mixture was measured into a 50 ml sterile screw cap conical tube (Product number 62.547.004 PP, Sarstedt, Inc., Newton, N.C.) and the urea was added at each of the following doses: 0, 10, 20, 40, 80, 160, 320, 640, and 1280 ppm; then it was added to the colored cellulose to a 7:3 ratio, (liquid-urea:colored-cellulose) and mixed to homogenize. […]
One treatment dish and one control dish were placed in the center of the top dish, taking care that the holes were facing each other and at least 1 cm apart. […] Matrix consumption was measured 30 d after by removing the left over bait matrix from the dishes and weighed it using a Sartorius balance (BP 211D, VWR Scientific, Atlanta, Ga.). […]

Structure (SMILES) | suppression of large colonies (C. formosanus) | further results
O=C(NC(=O)c1c(F)cccc1F)Nc1ccc(Cl)cc1 [diflubenzuron] | particularly effective | 
O=C(NC(=O)c1c(F)cccc1F)Nc1cc(Cl)c(OC(F)(F)C(F)F)c(Cl)c1 [hexaflumuron] | particularly effective | 
Cc1cc2nc3ccc(N(C)C)cc3nc2cc1N.Cl [neutral red] |  | feeding deterrence to the Formosan termite (Formosan termite): moderately deterrent
NC(N)=O [urea] |  | effect of urea on feeding deterrence induced by the colorant (consumption difference, control minus colored matrix) [1]: significantly affected the feeding deterrence induced by the colorant
